Legend:
[1] = tested on: Superoxide dismutase (SOD) activity in liver; test: Superoxide dismutase activity in liver of mice after restraint stress; assay type: in vivo, Swiss albino mice; details: 25 mg/Kg p.o. 7 days, control 0.6
Description: Swiss albino mice (20±2 g) were fed orally with—(a) 3-OH-DBP and (b) 3,8-(OH)2-DBP (each 25 mg/Kg b.w. per day, for 7 days). In case of the controls, only vehicle (0.8% carboxymethyl cellulose in water) was administered for seven days of the experiment. All the animals of all the groups were subjected to restraint stress (for 60 minutes) on the seventh day of the experiment, 2 hours after drug administration, according to a published method [Figueiredo, H. F., Bodie, B. L., Tauchi, M., Dolgas, C. M. and Herman, J. P. 2003. Endocrinology, 144, 5249-5258]. The model was selected in the present experiment, because restraint stress is a widely used model of acute oxidative stress. Immediately after being exposed to stress, the animals were sacrificed, blood was collected for analysis by HPLC of ATP and related nucleotides [Smolenska, Z., Kaznowska, Z., Zarowny, D., Simmonds, H. A. and Smolenski, R. T. 1999. […] AEC (adenylate energy charge) was calculated according to the method of Atkinson and Walton [Atkinson D E & Walton G M, Adenosine triphosphate conservation in metabolic regulation, J Biol Chem, 242 (1967) 3239] and TAN (total adenine nucleotides) was calculated according to an established method [Spencer M K & Katz A, Role of glycogen in control of glycolysis and IMP formation in human muscle during exercise, Am J Physiol, 260 (1991) E859]. […]

[2] = tested on: stress-induced lipid peroxidation of mouse liver mitochondria; test: Stress-induced lipid peroxidation of mouse liver mitochondria (thiobarbituric acid reaction); assay type: in vivo, Swiss albino mice; details: oral each 5 mg/Kg b.w. per day for 5 days, hypoxic stress, control 0.495
Description: (§1) Swiss albino mice (20±g) were fed orally with—(a) 3,8-(OH)2-DBP; (b) CoQ10; (c) a combination of 3,8-(OH)2-DBP and CoQ10 and (d) 3,8-(OH)2-DBP and CoQ10 in a clathrated form with fusoms (each 5 mg/Kg b.w.), per day, for 5 days. The animals were subjected to hypoxic stress for 1 hour each day for 3 days from the 3rd day of the experiment. After the stipulated time-period, brain and liver of the animals were collected and mitochondria from the liver were separated as described previously (Liu Y, Deng F, Zhao R and Qu S, Chemosphere, 40(8):851-854, 2000). Lipid peroxidation in brain and liver-mitochondria was estimated by the method of Ohkawa et al. (Ohkawa H, Ohishi N and Yagi K, Assay for lipid peroxides in animal tissues by thiobarbituric acid reaction. Anal. Biochem., 95:351-358, 1979).

[3] = DBP products in mice liver mitochondria before and after DBPs treatment, HPTLC; assay type: in vivo, Swiss Albino mice; details: one hour after i.p. 4:1 mixture of 3,8-(OH)2-DBP and 3-OH-DBP 20 mg/Kg
Description: Mitochondria were isolated from heart and liver of chicken, goat and mice following a published procedure (Liu Y, Deng F, Zhao R and Qu S, Chemosphere, 40(8):851-854, 2000). […] The tissue was cut into small pieces, homogenized and centrifuged at 900 g for one minute. The supernatant was again centrifuged twice, for 20 minutes each time at 900 g. The sediment at each step was discarded. The clear supernatant was centrifuged twice at 12,000 g, 20 minutes each time, to form pellets of a mitochondria-enriched fraction. The fraction was divided into two parts. One part was resuspended in a measured volume of distilled water and sonicated (10 min×2). […] The two extracts were subjected to comprehensive HPTLC and HPLC analyses for detection and quantitation of DBPs and their equivalents. […] One hour after administration the animals were sacrificed and mitochondria from liver were isolated and analyzed as described for Example 6. […] Mobile Phase—Chloroform:Methanol 90:10 Sample application—CAMAG LINOMAT 5 (Automated applicator) Detection—240 nm (CAMAG TLC SCANNER 3) 3-OH-DBP and 3,8-(OH)2-DBP (and their conjugates) were detected in mitochondria of control mice by HPTLC. Administration of DBPs to the animals increased the amount of DBPs and its products in mitochondria as detected by using authentic markers of the two DBPs (Table 2).

[4] = tested on: Blood levels of ATP and energy related indices; test: Blood ATP and energy related indices in mice after restraint stress; assay type: in vivo, Swiss albino mice; details: 25 mg/Kg p.o. 7 days
Description: Swiss albino mice (20±2 g) were fed orally with—(a) 3-OH-DBP and (b) 3,8-(OH)2-DBP (each 25 mg/Kg b.w. per day, for 7 days). In case of the controls, only vehicle (0.8% carboxymethyl cellulose in water) was administered for seven days of the experiment. All the animals of all the groups were subjected to restraint stress (for 60 minutes) on the seventh day of the experiment, 2 hours after drug administration, according to a published method [Figueiredo, H. F., Bodie, B. L., Tauchi, M., Dolgas, C. M. and Herman, J. P. 2003. Endocrinology, 144, 5249-5258]. The model was selected in the present experiment, because restraint stress is a widely used model of acute oxidative stress. Immediately after being exposed to stress, the animals were sacrificed, blood was collected for analysis by HPLC of ATP and related nucleotides [Smolenska, Z., Kaznowska, Z., Zarowny, D., Simmonds, H. A. and Smolenski, R. T. 1999. Rheumatology, 38, 997-1002; Komarova, S. V., Mosharov, E. V., Vitvitsky, V. M. and Ataullakhanov, F. I. 1999. Blood Cell Mol. Dis., 25(13), 170-179; Marquardt, D. L., Gruber, H. E. and Wasserman, S. I. 1984. Proc. Natl. Acad. Sci., 81, 6192-6196], and liver was collected for measurement of superoxide dismutase and catalase activities [Zielinski, S, and Pörtner, H. 2000. Comparative Biochem. Physiol. Part B, 125, 147-[60]. AEC (adenylate energy charge) was calculated according to the method of Atkinson and Walton [Atkinson D E & Walton G M, Adenosine triphosphate conservation in metabolic regulation, J Biol Chem, 242 (1967) 3239] and TAN (total adenine nucleotides) was calculated according to an established method [Spencer M K & Katz A, Role of glycogen in control of glycolysis and IMP formation in human muscle during exercise, Am J Physiol, 260 (1991) E859].

[5] = tested on: stress-induced lipid peroxidation of mouse brain; test: Stress-induced lipid peroxidation of mouse brain (thiobarbituric acid reaction); assay type: in vivo, Swiss albino mice; details: oral each 5 mg/Kg b.w. per day for 5 days, hypoxic stress, control 1.169
Description: as §1

[6] = Stability of reduced CoQ10 (CoQH2) by 3,8-(OH)2-DBP at different pH, HPLC; assay type: physicochemical

Compound: O=c1oc2cc(O)ccc2c2ccc(O)cc12 [3,8-(OH)2-DBP, 3,8-dihydroxydibenzo-α-pyrone]
- SOD activity in liver [1]: 0.98 U/gm tissue
- OD Values at 532 nm (lipid peroxidation) [2]: 0.395
- Amount in mitochondria after DBP treatment [3]: 2.3 nmol/gm wet wt
- ADP ([4]; mean ± SEM of 6, control 0.14 ± 0.02): 0.09 ± 0.01 µM
- ATP ([4]; mean ± SEM of 6, control 0.67 ± 0.03): 0.64 ± 0.05 µM
- TAN ([4]; mean ± SEM of 6, control 0.76 ± 0.03): 0.76 ± 0.06 µM
- AEC ([4]; mean ± SEM of 6, control 0.89 ± 0.01): 0.90 ± 0.01
- ATP/ADP ratio ([4]; mean ± SEM of 6, control 4.90 ± 0.32): 6.96 ± 0.49
- OD Values at 532 nm (lipid peroxidation) [5]: 1.119
- Regenerated CoQ10 in presence of 3,8-(OH)2-DBP ([6]; autoxidation of CoQH2, pH 8, 80 min): 151.28 µg/mL
- Regenerated CoQ10 in presence of 3,8-(OH)2-DBP ([6]; autoxidation of CoQH2, pH 8, 100 min): 202.31 µg/mL
